Read-outs that look alike come from different tables or passages of the source.
How the values were obtained:
[1] = target: GSK3α (GST-full length GSK3α) (Homo sapiens (Human), UniProt P49840); test: GSK3α TR-FRET kinase assay; format: biochemical
Description: (§1) TR-FRET Assay: The assay was performed in a white, 384 well, low volume, flat bottom plate (Grenier). After a 30 minute preincubation in assay buffer with the indicated concentration of compound, the kinase activity was initiated by the addition of the substrates. 1 nM GSK3α (GST-full length GSK3α [SignalChem G08-10G]) or 1 nM GSK3b (GST-full length GSK3b: [SignalChem G08-9G]) were then incubated at ambient temperature for 100 minutes in 10 μL of 50 mM Tris, pH 7.5, 20 mM MgCl2, 0.05 mM DTT, 100 μg/mL BSA and 1% DMSO, with 200 nM biotinylated peptide substrate (biotinylated and S645 phosphorylated glycogen synthase 631-650) and either 4 μM ATP (GSK3α, Table 16) or 2 μM ATP (GSK3b, Table 16) or 1 mM ATP (Table 17). The kinase activity was quenched with 2 μL of 250 mM EDTA. A 10 μL volume of 40 nM Strepavidin-d2, 2 nM Tb^2+-pSer641 antibody in TR-FRET Detection Buffer (Invitrogen) was then added. After 60 min at room temperature the plate was read on Envision plate reader using Ex: 340 nm, Em: 615 nm and […]. The normalized 665/615 Signal ratio versus log compound concentration was analyzed by XLFIT to yield IC50 values.

[2] = target: GSK3b (GST-full length GSK3b) (Homo sapiens (Human), UniProt P49841); test: GSK3b TR-FRET kinase assay; format: biochemical
Description: as §1

[3] = 1 nM GSK3α, 4 μM ATP, 30 minute preincubation, Table 16, read-out: GSK3-A TR-FRET BIOCHEMICAL (TR-FRET)
[4] = 1 nM GSK3b, 2 μM ATP, 30 minute preincubation, Table 16, read-out: GSK3-B TR-FRET BIOCHEMICAL (TR-FRET)
[5] = 1 nM GSK3α, 4 μM ATP, 30 minute preincubation, geometric mean, read-out: GSK3-A TR-FRET BIOCHEMICAL (TR-FRET), GMean, IC50
[6] = 1 nM GSK3b, 2 μM ATP, 30 minute preincubation, geometric mean, read-out: GSK3-B TR-FRET BIOCHEMICAL (TR-FRET), GMean, IC50
[7] = 1 nM GSK3α, 4 μM ATP, 30 minute preincubation, Table 16, read-out: GSK3-A TR-FRET BIOCHEMICAL (TR-FRET), IC50
[8] = 1 nM GSK3b, 2 μM ATP, 30 minute preincubation, Table 16, read-out: GSK3-B TR-FRET BIOCHEMICAL (TR-FRET), IC50
[9] = read-out: GSK3-A (TR-FRET 1 mM ATP), GMean, IC50, 1 mM ATP, geometric mean
[10] = read-out: GSK3-B (TR-FRET 1 mM ATP), GMean, IC50, 1 mM ATP, geometric mean
[11] = 1 nM GSK3α, 4 μM ATP, 30 minute preincubation, read-out: GSK3-A TR-FRET BIOCHEMICAL (TR-FRET), IC50
[12] = 1 nM GSK3b, 2 μM ATP, 30 minute preincubation, read-out: GSK3-B TR-FRET BIOCHEMICAL (TR-FRET), IC50

GSK3b (GST-full length GSK3b), sequence (P49841 whole entry): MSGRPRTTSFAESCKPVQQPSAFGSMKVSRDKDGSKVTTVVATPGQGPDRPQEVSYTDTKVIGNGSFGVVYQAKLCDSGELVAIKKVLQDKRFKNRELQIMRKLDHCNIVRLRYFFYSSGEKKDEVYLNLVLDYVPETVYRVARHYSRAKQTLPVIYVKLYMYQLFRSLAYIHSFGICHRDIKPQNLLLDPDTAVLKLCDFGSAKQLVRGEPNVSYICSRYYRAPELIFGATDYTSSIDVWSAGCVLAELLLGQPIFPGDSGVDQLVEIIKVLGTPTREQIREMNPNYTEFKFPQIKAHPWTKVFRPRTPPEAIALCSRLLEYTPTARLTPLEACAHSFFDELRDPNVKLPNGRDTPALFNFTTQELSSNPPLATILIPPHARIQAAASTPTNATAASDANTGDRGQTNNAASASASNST
GSK3α (GST-full length GSK3α), sequence (P49840 whole entry): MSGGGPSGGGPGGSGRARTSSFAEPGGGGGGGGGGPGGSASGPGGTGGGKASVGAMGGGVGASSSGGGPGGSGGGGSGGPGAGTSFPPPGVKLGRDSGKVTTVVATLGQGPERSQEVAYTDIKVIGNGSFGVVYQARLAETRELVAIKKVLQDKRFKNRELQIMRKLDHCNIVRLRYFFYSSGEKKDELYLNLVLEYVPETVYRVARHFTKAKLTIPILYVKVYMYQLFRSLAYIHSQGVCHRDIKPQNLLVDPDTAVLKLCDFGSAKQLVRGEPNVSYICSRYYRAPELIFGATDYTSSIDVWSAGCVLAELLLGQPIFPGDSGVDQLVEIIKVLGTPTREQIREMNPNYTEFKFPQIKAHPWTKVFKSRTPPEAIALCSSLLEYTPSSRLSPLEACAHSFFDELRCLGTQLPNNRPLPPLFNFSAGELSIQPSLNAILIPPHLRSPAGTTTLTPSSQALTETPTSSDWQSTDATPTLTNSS

CCC1(c2cccc(N(C)c3ccnnc3)c2)C2=C(CC(C)(C)CC2=O)Nc2n[nH]cc21 (centres unmarked) [Compound 943492]
IC50 [1, 3]: ≤ 100 nM
IC50 [2, 4]: ≤ 100 nM

O=C1C2=C(Nc3n[nH]cc3C23CCOCC3)C2CCC1C2 (centres unmarked) [Compound 901464]
IC50 [1, 3]: 100 to 1000 nM
IC50 [2, 4]: 100 to 1000 nM

CC[C@]1(c2ccccc2)C2=C(C[C@](C)(C(F)(F)F)CC2=O)Nc2n[nH]cc21 [Compound 819569]
IC50 [1, 5]: 100 to 1000 nM
IC50 [2, 6]: 1000 to 5000 nM

CCC1(c2cccc(-c3ccnc(C)c3C)c2)C2=C(CC(C)(C)CC2=O)Nc2n[nH]cc21 (centres unmarked) [Compound 913347]
IC50 [1, 7]: ≤ 100 nM
IC50 [2, 8]: ≤ 100 nM

CC[C@]1(c2cccc(-c3cn(C)nc3C)c2)C2=C(CC(C)(C)CC2=O)Nc2n[nH]cc21 [Compound 945546]
IC50 [1, 3]: ≤ 100 nM
IC50 [1, 9]: ≤ 100 nM
IC50 [2, 4]: ≤ 100 nM
IC50 [2, 10]: 100 to 1000 nM

CC[C@]1(c2cccc(-c3ccnc(OC)c3Cl)c2)C2=C(CC(C)(C)NC2=O)Nc2n[nH]cc21 [Compound 952754]
IC50 [1, 7]: ≤ 100 nM
IC50 [2, 8]: 100 to 1000 nM

CC1(C)CC(=O)C2=C(C1)Nc1n[nH]cc1[C@@]21CCOC2(CCCC2)C1 [Compound 907326]
IC50 [1, 11]: 100 to 1000 nM
IC50 [2, 12]: 1000 to 5000 nM

CC1(C)CC(=O)C2=C(C1)Nc1n[nH]cc1[C@@]21CCO[C@H](C(F)(F)F)C1 [Compound 884022]
IC50 [1, 3]: 100 to 1000 nM
IC50 [2, 4]: 100 to 1000 nM

CCC1(c2cccc(-c3ccccc3)c2)C2=C(CC(C)(C)CC2=O)Nc2n[nH]cc21 (centres unmarked) [Compound 801369]
IC50 [1, 5]: > 5000 nM
IC50 [2, 6]: > 5000 nM

CCC1(c2cccc(-c3cnn4c3CCCC4)c2)C2=C(CC(C)(C)NC2=O)Nc2n[nH]cc21 (centres unmarked) [Compound 947415]
IC50 [1, 5]: 1000 to 5000 nM
IC50 [2, 6]: > 5000 nM

CC[C@@]1(c2cccc(-c3cn(C)nc3C)c2)C2=C(CC(C)(C)NC2=O)Nc2n[nH]c(F)c21 [Compound 949185]
IC50 [1, 7]: ≤ 100 nM
IC50 [1, 9]: ≤ 100 nM
IC50 [2, 8]: ≤ 100 nM
IC50 [2, 10]: 1000 to 5000 nM

CCC1(c2cccc(-c3cnn4c3CCCC4)c2)C2=C(CC(C)(C)NC2=O)Nc2n[nH]c(C(F)(F)F)c21 (centres unmarked) [Compound 947801]
IC50 [1, 5]: ≤ 100 nM
IC50 [2, 6]: ≤ 100 nM

CC1(C)CC(=O)C2=C(C1)Nc1n[nH]cc1[C@]21CCOC2(CCCC2)C1 [Compound 907327]
IC50 [1, 11]: 100 to 1000 nM
IC50 [2, 12]: 1000 to 5000 nM

CC[C@@]1(c2cccc(-c3cn(C)nc3C)c2)C2=C(CC(C)(C)C2=O)Nc2n[nH]cc21 [Compound 951710]
IC50 [1, 7]: > 5000 nM
IC50 [2, 8]: > 5000 nM

CCC1(c2cccc(N3CCCCC3)c2)C2=C(CC(C)(C)NC2=O)Nc2n[nH]c(C)c21 (centres unmarked) [Compound 947674]
IC50 [1, 5]: ≤ 100 nM
IC50 [2, 6]: 100 to 1000 nM

CC[C@@]1(c2ccccc2)C2=C(Nc3n[nH]cc31)[C@@H]1CC[C@@H](C1)C2=O [Compound 791268]
IC50 [1, 3]: > 5000 nM
IC50 [2, 4]: > 5000 nM

CC[C@]1(c2cccc(-c3cnn4c3OCCC4)c2)C2=C(CC(C)(C)NC2=O)Nc2n[nH]cc21 [Compound 952019]
IC50 [1, 7]: ≤ 100 nM
IC50 [2, 8]: 100 to 1000 nM

CCC1(c2cccc(-c3ccnc(C)c3C)c2)C2=C(CC(C)(C)CC2=O)Nc2n[nH]cc21 (centres unmarked) [Compound 943517]
IC50 [1, 3]: 100 to 1000 nM
IC50 [2, 4]: > 5000 nM

CC[C@@]1(c2ccccc2)C2=C(C[C@]3(CCCOC3)CC2=O)Nc2n[nH]cc21 [Compound 816879]
IC50 [1, 5]: 100 to 1000 nM
IC50 [2, 6]: 100 to 1000 nM

CC[C@]1(c2cccc(-c3cnn4c3CCCC4)c2)C2=C(CC(C)(C)NC2=O)Nc2n[nH]cc21 [Compound 947410]
IC50 [1, 5]: ≤ 100 nM
IC50 [1, 9]: 100 to 1000 nM
IC50 [2, 6]: 100 to 1000 nM
IC50 [2, 10]: > 5000 nM

CC1(C)CC(=O)C2=C(C1)Nc1n[nH]cc1C21CC(C)(C)C1 [Compound 883864]
IC50 [1, 3]: ≤ 100 nM
IC50 [2, 4]: 100 to 1000 nM

CCC1(c2cccc(-c3cnn(C)c3F)c2)C2=C(CC(C)(C)NC2=O)Nc2n[nH]cc21 (centres unmarked) [Compound 949395]
IC50 [1, 7]: 1000 to 5000 nM
IC50 [2, 8]: > 5000 nM

CC[C@]1(c2cccc(-c3cnn(Cc4ccc(OC)cc4)c3)c2)C2=C(CC(C)(C)NC2=O)Nc2n[nH]cc21 [Compound 951838]
IC50 [1, 7]: 100 to 1000 nM
IC50 [2, 8]: 1000 to 5000 nM

CC1(C)CC(=O)C2=C(C1)Nc1n[nH]cc1[C@]21CO[C@@H](C2CC2)C1 (stereo in doubt) [Compound 913185]
IC50 [1, 3]: 100 to 1000 nM
IC50 [2, 4]: 1000 to 5000 nM

CC(C)CC(=O)N1CC2(C1)CC1(CO2)C2=C(CC(C)(C)CC2=O)Nc2n[nH]cc21 (centres unmarked) [Compound 947302]
IC50 [1, 11]: ≤ 100 nM
IC50 [2, 12]: ≤ 100 nM

CCC1(c2cccc(-c3ccnc4nc(C)ccc34)c2)C2=C(CC(C)(C)NC2=O)Nc2n[nH]cc21 (centres unmarked) [Compound 948151]
IC50 [1, 5]: 100 to 1000 nM
IC50 [2, 6]: > 5000 nM

CCC1(c2cccc(N(CCc3ccccc3)C(C)=O)c2)C2=C(CC(C)(C)CC2=O)Nc2n[nH]cc21 (centres unmarked) [Compound 912064]
IC50 [1, 7]: ≤ 100 nM
IC50 [2, 8]: ≤ 100 nM

CCC1(c2cccc(-c3c(C)nn(C)c3C)c2)C2=C(CC(C)(C)NC2=O)Nc2n[nH]cc21 (centres unmarked) [Compound 945462]
IC50 [1, 11]: ≤ 100 nM
IC50 [2, 12]: ≤ 100 nM

CC[C@@]1(c2ccccc2)C2=C(CC(C)(C)[C@H](F)C2=O)Nc2n[nH]cc21 [Compound 826769]
IC50 [1, 5]: > 5000 nM
IC50 [2, 6]: > 5000 nM

CCC1(c2cccc(C(F)(F)F)c2)C2=C(CCN(c3cnc(OC)nc3)C2=O)Nc2n[nH]c(C)c21 (centres unmarked) [Compound 949126]
IC50 [1, 5]: ≤ 100 nM
IC50 [2, 6]: 100 to 1000 nM

Cc1cc(S(=O)(=O)N2CCC3(CC2)C2=C(CC(C)(C)CC2=O)Nc2n[nH]cc23)n(C)n1 [Compound 947608]
IC50 [1, 3]: ≤ 100 nM
IC50 [2, 4]: ≤ 100 nM

CCC1(c2cccc(-c3ccncc3)c2)C2=C(CC(C)(C)CC2=O)Nc2n[nH]cc21 (centres unmarked) [Compound 883984]
IC50 [1, 7]: ≤ 100 nM
IC50 [2, 8]: ≤ 100 nM

CC[C@]1(c2ccccc2)C2=C(C[C@@]3(CCOC3)CC2=O)Nc2n[nH]cc21 [Compound 816881]
IC50 [1, 5]: 100 to 1000 nM
IC50 [2, 6]: 1000 to 5000 nM

CC(C)c1nc(S(=O)(=O)N2CCC3(CC2)C2=C(CC(C)(C)CC2=O)Nc2n[nH]cc23)cn1C [Compound 945663]
IC50 [1, 3]: ≤ 100 nM
IC50 [2, 4]: ≤ 100 nM

CC[C@]1(c2cccc(-c3cc(C)nc(C)c3)c2)C2=C(CC(C)(C)CC2=O)Nc2n[nH]cc21 [Compound 913223]
IC50 [1, 7]: > 5000 nM
IC50 [2, 8]: > 5000 nM

CCC1(c2cccc(C(F)(F)F)c2)C2=C(CC3(CCN(C)C3=O)CC2=O)Nc2n[nH]cc21 (centres unmarked) [Compound 950329]
IC50 [1, 3]: ≤ 100 nM
IC50 [2, 4]: ≤ 100 nM

COc1cc(S(=O)(=O)N2CCC3(CC2)C2=C(CC(C)(C)CC2=O)Nc2n[nH]cc23)ccc1Cl [Compound 945669]
IC50 [1, 3]: ≤ 100 nM
IC50 [2, 4]: ≤ 100 nM

Cc1cc(-c2cccc3c2CCC[C@@]32C3=C(CC(C)(C)CC3=O)Nc3n[nH]cc32)ccn1 [Compound 945550]
IC50 [1, 3]: 100 to 1000 nM
IC50 [2, 4]: > 5000 nM

CC[C@@]1(c2cccc(S(C)(=O)=O)c2)C2=C(CC(C)(C)NC2=O)Nc2n[nH]c(C(F)(F)F)c21 [Compound 948422]
IC50 [1, 5]: 100 to 1000 nM
IC50 [2, 6]: 100 to 1000 nM

CCC1(c2cccc(S(=O)(=O)C3CCOC3)c2)C2=C(CC(C)(C)CC2=O)Nc2n[nH]cc21 (centres unmarked) [Compound 944018]
IC50 [1, 3]: ≤ 100 nM
IC50 [2, 4]: ≤ 100 nM
